Results published in patent US20120295321A1, “Pentose Transporters and Uses Thereof” (Universiteit Utrecht Holding B.V., priority 2009, published 2012).
Where two headings read alike, the source gives them in different places.

B1: Aspergillus niger pentose transporter protein An03g02190 (2190), FIG. 8A (Aspergillus niger CBS 513.88) (protein)
chain: MPRKRPQDELNGDVLQQEAQATGPNDQKSEEGIVDTPIPLLTWRSFLMGIFVSMGGFLFGYDTGQISGFLEMPNFLQRYGQQQADGTYYFSNARSGLIVALLSIGTLIGALIAAPIADRVGRKWSISGWSAMVCVGITIQISSPFGKWYQVAMGRWVAGLGVGALSLLVPMYQAETGPRHIRGSLVSTYQLFITLGIFVANCINFGTEARNDTGSWRIPMGITYIWAMILGFGIALFPESARYDYRHGREAKAARTLSRMYGIPENHRMLKLEIGEIRQKFVEEQERGEITWSHLLHAPRMKYRVAVGVALQALQQLTGANYFFYYGTTIFRGAGISNSYVTQMILGGVNFGTTFLGLYLIENYGRRRSLITGALWMFVCFMVFASVGHFSLDHENPERTHTAGVVMVVFACLFILGFASTWGPMVWTIIAELYPSEFRARAMSLATASNWLWNFLLAFFTPFITSAIDFRLGYVFAGCLFLAAGLVYVAVIEGRGRTLEEIDTMYVMKVPPWKSSKYVFPDIDPYDRRGSILSKAGASHIPQVSGGNETLSPHTTEV

Legend:
[1] = test system: S. cerevisiae strain expressing the 0560 (An06g00560) transporter; assay: toxic effect of pentose on yeast growth, strain expressing 0560 transporter; type: cell-based, Saccharomyces cerevisiae; conditions: 50 mM maltose, YNB + 2% agar + 0.5 mM CuSO4; further: key: ++++: very good growth; +++: good growth; ++: poor growth; +: very poor growth; +/−: growth barely visible; −: no growth
Procedure: (§1) Yeast strain EB.VW4000 was grown on YP [1% (w/v) Bacto yeast extract/2% (w/v) Bacto peptone]with 2% (w/v) maltose at 30° C. (ref strain). Other S. cerevisiae strains used were derived from strain EB.VW4000, and were transformed with plasmids based on pYEX-BX (Clontech). Plasmid transformations of yeast cells were carried out according to the quick and easy TRAFO protocol [TRAFO reference]. Yeast strains were grown at 30° C. in a rotary shaker at 250 rev./min, in YNB[0.67% (w/v) Difco yeast nitrogen base] supplemented with 0.1% (w/v) casamino acids and 0.2 mg/l tryptophan, 20 mg/l leucine, 20 mg/l histidine, 122 mg/l uridine. The carbon sources used were as stated in the text. Unless stated otherwise, 0.5 mM CuSO4 was used to induce expression from the CUP1 promoter.
(§2) Yeast strains provided with an exemplary novel pentose transporter were studied with respect to the effect of growth in the presence of pentose sugars.

[2] = test system: Aspergillus niger pentose transporter protein An03g01620 (1620), FIG. 3A; assay: zero trans-influx sugar transport assay (14C-labelled pentose uptake, transporter expressed in S. cerevisiae); type: biochemical
Text: (§3) Cells were kept on ice until required.

[3] = test system: Aspergillus niger pentose transporter protein An06g00560 (0560), FIG. 1A; assay: as above; type: biochemical; conditions: read-out: Km for L-arabinose, 5 s, 30° C., pH 6.5
Text: as §3

[4] = test system: Aspergillus niger pentose transporter protein An08g01720 (1720), FIG. 4A; assay: as above; type: biochemical
Text: as §3

[5] = test system: S. cerevisiae strain expressing the 1100 (An11g01100) transporter; assay: toxic effect of pentose on yeast growth, strain expressing 1100 transporter; type: cell-based, Saccharomyces cerevisiae; conditions: 50 mM maltose, YNB + 2% agar + 0.5 mM CuSO4; further: key: ++++: very good growth; +++: good growth; ++: poor growth; +: very poor growth; +/−: growth barely visible; −: no growth
Procedure: as §1, §2

[6] = substrate: OC1OC[C@@H](O)[C@H](O)[C@H]1O; assay: cells, lysate or membranes; conditions: other: zero trans-influx, 5 s, 30° C., pH 6.5
[7] = substrate: OC1OC[C@H](O)[C@H](O)[C@H]1O; assay: cells, lysate or membranes; conditions: other: zero trans-influx, 5 s, 30° C., pH 6.5

Row | Molecule | growth ([1]; 25 mM pentose) | growth ([1]; 50 mM pentose) | growth ([1]; 100 mM pentose) | growth ([1]; 500 mM pentose) | Km ([2]; read-out: Km for L-arabinose, 5 s, 30° C., pH 6.5) [mM] | Km [3] [mM] | higher affinity for L-arabinose than An06g00560 ([4]; Km 4.9 mM compared to 75 mM) | Km ([4]; read-out: Km for L-arabinose, zero trans-influx, 5 s, 30° C., pH 6.5) [mM] | growth ([5]; 25 mM pentose) | growth ([5]; 50 mM pentose) | growth ([5]; 100 mM pentose) | growth ([5]; 500 mM pentose) | Km ([2]; read-out: Km for D-xylose, 5 s, 30° C., pH 6.5) [mM] | Km [6] [mM mM] | Km [7] [mM mM]
1 | OC1OC[C@H](O)[C@H](O)[C@H]1O (stereo partly drawn) [L-arabinose] | + | +/− | +/− | − | 7.5 | 75 | approximately 15 fold | 4.9 | +++ | ++ | + | +/− |  |  | 
2 | OC1OC[C@@H](O)[C@H](O)[C@H]1O (stereo partly drawn) [D-xylose] | +++ | ++ | ++ | ++ |  |  |  |  | ++ | + | + | + | 23 |  | 
3 | B1 |  |  |  |  |  |  |  |  |  |  |  |  |  | 9 | 2.6
